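Where inhibition never reached the appropriate level, the endpoint shown equals the highest concentration tested. Otherwise, values were interpolated linearly from a five-concentration, 48-hour dose response in 96-well plates. Abbreviation: GI50, concentration required for 50% inhibition of growth. At the TGI there is no net growth.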
Legend:
Assay in all cases: NCI-60 cell line screen, 48 h
UACC-62 melanoma = test system: UACC-62 melanoma
A498 renal = test system: A498 renal
HCT-116 colon = test system: HCT-116 colon
A549 NSCLC = test system: A549 NSCLC
HOP-92 NSCLC = test system: HOP-92 NSCLC
SK-OV-3 ovarian = test system: SK-OV-3 ovarian
SNB-19 CNS = test system: SNB-19 CNS
SF-268 CNS = test system: SF-268 CNS
SNB-75 CNS = test system: SNB-75 CNS
DU-145 prostate = test system: DU-145 prostate

SMILES	TGI (UACC-62 melanoma) [µM]	GI50 (A498 renal) [µM]	TGI (A498 renal) [µM]	TGI (HCT-116 colon) [µM]	TGI (A549 NSCLC) [µM]	TGI (HOP-92 NSCLC) [µM]	TGI (SK-OV-3 ovarian) [µM]	TGI (SNB-19 CNS) [µM]	TGI (SF-268 CNS) [µM]	TGI (SNB-75 CNS) [µM]	TGI (DU-145 prostate) [µM]	GI50 (SF-268 CNS) [µM]	GI50 (UACC-62 melanoma) [µM]	GI50 (SNB-75 CNS) [µM]	GI50 (DU-145 prostate) [µM]	GI50 (A549 NSCLC) [µM]	GI50 (SK-OV-3 ovarian) [µM]	GI50 (SNB-19 CNS) [µM]
O=c1cccccc1[O-].O=c1cccccc1[O-].[O]=[U+2]=[O]	41.6	25.1	45.8	98.4	> 100	70.6	74.5	82.2										
O=C(OCN1C(=O)C2C3C=CC(C2C1=O)C1C2C(=O)N(COC(=O)C4CCCN4)C(=O)C2C31)C1CCCN1 (centres undefined)	> 100		> 100	> 53.7	> 100	> 100	> 100	> 100	> 78.5	> 100								
Cc1nn(-c2ccccc2)c(C)c1/C=N/N=C1\SCC(=O)N1c1ccccc1	68.3		78.3	36.5	99.6		83	> 100	> 100	55	> 100							
CNC(=O)OCc1c(CO)nc(SC)n1C	> 100		> 100	> 100	> 100	> 100	> 100	> 100	> 100	> 100								
O=C(/C=C/c1ccccc1)NNC(=O)c1c(Cl)c(Cl)c(Cl)c(Cl)c1-c1nc2ccccc2[nH]1	> 100		90.9	53.6	67.7	45.7	54.9		> 100	59.2	> 100							
COc1cc2c(cc1O)CC[C@@H]1[C@@H]2CC[C@]2(C)[C@@H](OCCN(C)C)CC[C@@H]12	0.363	0.569	1.37		1.19		2.11	5.14	5.29	0.449	5.35	0.353	0.128	0.0787	0.182	0.247	0.356	0.777
COc1cc2c(ccc3c4cc(OC)c(OC)cc4c[n+](C)c23)cc1O	11.5		65.8	> 60.3	> 75	> 75	> 72.2	32.4	6.09	16.4								
CCN(CC(=O)O)C(=O)c1cccnc1	> 100		> 100	> 100	> 100	> 100		> 100	> 100	> 100	> 100							
CCC(C)C1=C(OC(C)=O)[N+]2([O-])Oc3ccc(-c4c(OC(C)=O)c(OC(C)=O)c(-c5ccc(OC(C)=O)cc5)c(OC(C)=O)c4OC(C)=O)cc3OC2(C(C)CC)C(=O)N1OC(C)=O (centres undefined)	16.7		> 50	22.8	> 50		> 50	> 50	37.6	42.3	> 50							
O=C(C[n+]1ccc2ccccc2c1)c1ccc2ccc3ccccc3c2c1	9.72		18.6	13.6	16.6	18.8	21	18.7	19.9	18.5	21.3							
CC1=CC(=O)c2ccccc2C1=O	10.3		39.1	5.33	40.2	2.94	25.7	33.5	22.2	22.1	29.4							
C[C@H](CCC(=O)O)[C@H]1CC[C@@]2(C)[C@@H]3C(=O)C[C@H]4C(C)(C)[C@@H](O)CC[C@]4(C)[C@H]3C(=O)C[C@]12C	> 100		> 100	> 100	> 100	> 100	> 100	> 100	> 100	> 100	> 100							
CCOC(=O)C1=NN(c2ccc(C)cc2)C2=CC(C)=NN(C)C(=S)N21	> 100			> 100	> 100		> 100	> 100	> 100	> 100	> 100							
O=C(/C=C/c1ccc(O)c(-c2cc(C(=O)/C=C/c3ccc(O)cc3)c(O)cc2O)c1)c1ccc(O)cc1O	20.4		> 50	23.7	> 50	> 50	48.3	> 50	> 50	36	> 50							
CC1CC[C@@]2(OC1)OC1C[C@H]3[C@@H]4CC=C5CC(OC6OC(CO)C(OC7OC(CO)C(O)C(OC8OCC(O)C(O)C8O)C7OC7OC(CO)C(O)C(O)C7O)C(O)C6O)CCC5(C)[C@H]4CCC3(C)C1[C@@H]2C (some centres undefined)	> 25		9.19	8.14	8.01	> 25	20.7	> 25	9.45	13.7	9.48							
Cc1c(N2C(=O)CS(=O)(=O)C2c2cccc(Oc3ccccc3)c2)c(=O)n(-c2ccccc2)n1C (centres undefined)	> 100		55.9	> 100	> 100	> 100	> 100	> 100	> 100		> 100							

Reference: PubChem BioAssay (NCI)
